Tested on: Balb/c 3T3 mouse fibroblasts
Assay: 3T3 in vitro phototoxicity assay (Neutral Red uptake)
Type: cell-based
Settings: for Phototoxicity factor: IC50 without vs with UV-A exposure, cut-off factor >5; for IC50: Mus musculus, BALB/c3T3, light or radiation study, 3T3 fibroblasts, approx. 5 J/cm^2 UVA, Neutral Red uptake
Source text: Phototoxicity is defined as a toxic response that is elicited after the first exposure of the skin to certain chemicals and subsequent exposure to light, or that is induced similarly by skin irradiation after systemic administration of a chemical substance. The assay used in this study is designed to detect the phototoxic potential of a chemical by using a simple in vitro cytotoxicity assay with Balb/c 3T3 mouse fibroblasts. The principle of this test is a comparison of the cytotoxicity of a chemical when tested with and without exposure to a non-toxic dose of UVA-light. Cytotoxicity is expressed as a dose dependent reduction of the growth rate of cells as determined by uptake of the vital dye Neutral Red one day after treatment.
A small amount of substance was weighed and formulated freshly in DMSO just before the start of the exposure of the cells. This stock solution or appropriate dilutions with DMSO were added to the cell suspensions to obtain the required final concentrations. All solutions were generally prepared in Eppendorf caps and discarded after use.
• Chlorpromazine (HCL) (Sigma, Batch/Lot No.: 120M1328V), test concentration: 300 μg/mL, Solvent: PBS/3% DMSO
For this study the Neutral Red uptake (NRU) assay of Borenfreund and Puerner (Borenfreund, E, Puerner J A. Toxicity determined in vitro by morphological alterations and Neutral Red absorption. Toxicology Lett. 1985; 24:119-124) modified according to INVITTOX protocol No 78 (ERGATT/FRAME data bank of in vitro techniques in toxicology. INVITTOX PROTOCOL No 78. 3T3 NRU Phototoxicity Assay. March 1994) has been adapted to examine a possible phototoxic potential of the test item. This assay is based on the active uptake of the Neutral Red dye into the lysosomes of cultured murine fibroblasts. Because lysosomal membranes are known to be a site of action of many phototoxic compounds, this assay can provide a measure of potential for phototoxic injury.
A murine fibroblasts clone A 31 (ATCC no. CCL 163—passage No. 108) were cultured in 175 cm^2 tissue culture grade flasks, containing sDMEM (Dulbecco's […] Essential Medium, supplemented with 10% fetal calf serum, 2 mM L-glutamine, 100 units/ml Penicillin and 100 μg/ml streptomycin) at 37° C. in a humidified atmosphere of 6% CO2. Before cells approach confluence they were removed from flasks by trypsinisation. Prior to use in an assay, the cells were transferred to 96-well microtiter plates at a concentration of 1×10^4 cells/well in 100 μl volumes of sDMEM and allowed to attach for 24 h.
For incubation with murine fibroblasts, the test item was diluted in PBS/3% DMSO (detailed concentrations see in results).
Culture medium (Dulbecco's Modified Eagle Medium(DMEM), GlutaMAX (Gibco Ref 21885-025), 10% Fetal Bovine Serum (FBS) (Gibco Ref 10270-106), 1001U/ml Penicillin and 100 μg/mL Streptomycin (Gibco Ref 15140-122)) was removed from the wells and murine fibroblasts were washed with PBS. Afterwards 100 μL of PBS/3% DMSO containing the test item was added and target cells were incubated for 1 h at 37° C. with 6% CO2.
For each test item the microtiter plates were prepared according to Table 6. “UVA plates” were exposed to approx. 5 J/cm^2 UVA light, the “Dark plates” were kept in the dark and served as cytotoxicity control. Plates with chlorpromazine hydrochloride served as positive control. UV flux was measured with a UV-meter (Dr. Gröbel RM21).
Following UV irradiation, the test item was removed from the wells (one washing step with PBS) and replaced with sDMEM. Target cells were then incubated overnight at 37° C. in 6% CO2.
Each plate contained wells with cells and solvent but without test item which were either not incubated with Neutral Red solution (0% standard—S1) or were stained with Neutral Red (100% standard—S2) for calculation of the standard cell viability curve. Wells labeled with U01-U08 contained the different test item concentrations. […]

Compound | Phototoxicity factor | IC50 [µg/mL]
CO[C@@H]1CN(c2ccc3c(n2)[C@@H](C)CN(c2cc(C)nc4c2cnn4C)C3)C[C@H]1N [Example 63, (3R,4R)-4-methoxy-1-[(8S)-6-(1,6-dimethylpyrazolo[3,4-b]pyridin-4-yl)-8-methyl-7,8-dihydro-5H-1,6-naphthyridin-2-yl]pyrrolidin-3-amine] | 1 | > 100
CO[C@@H]1CN(c2ccc3c(c2)[C@@H](C)CN(c2ccnc4c2cnn4C)C3)C[C@H]1N [Example 20, (3R,4R)-4-methoxy-1-[(4R)-4-methyl-2-(1-methylpyrazolo[3,4-b]pyridin-4-yl)-3,4-dihydro-1H-isoquinolin-6-yl]pyrrolidin-3-amine] | 1 | > 100
Cn1ncc2c(N3CCc4cc(N5CCNCC5)ccc4C3)ccnc21 [Example 3, 2-(1-methylpyrazolo[3,4-b]pyridin-4-yl)-6-piperazin-1-yl-3,4-dihydro-1H-isoquinoline] | 1 | > 100
